Measurements published in patent publication US11109593B2, “Isoxazolin-5-one derivative and herbicide containing same as active ingredient” (HOKKO CHEMICAL INDUSTRY CO., LTD., priority 2017, dated 2021).

system: Echinochloa crus-galli; assay: Test Example 2: herbicidal effect test by treatment during growing period in paddy rice cultivation (seven days after seeding); format: in vivo; details: 120 g/10a active ingredient, assessed 14 days after treatment, dry weight vs untreated area
Method in brief: (§1)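 Greenhouse flooded-pot test, seeds sown in puddled paddy soil; emulsion applied into water 7 d after seeding, 120 g a.i./10 a. Dry-weight-based herbicidal rate at 14 d, n=2.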

Row | Compound | Herbicidal rate (%) Echinochloa crus-galli
1 | COCC(C)n1oc(=O)c(Cc2ccccc2N(C(=O)C(C)C)S(=O)(=O)C(F)(F)F)c1C (centres unmarked) [Compound 1-335] | 90%
2 | CCC(C)n1oc(=O)c(Cc2ccccc2N(S(=O)(=O)CC)S(=O)(=O)C(F)(F)F)c1C (centres unmarked) [Compound 1-913] | 90%

system: broad leaf weeds (Lindernia pyxidaria and Monochoria vaginalis); assay: as above; format: in vivo; details: Lindernia pyxidaria, 120 g/10a active ingredient, assessed 14 days after treatment, dry weight vs untreated area
Method in brief: as §1

Row | Compound | Herbicidal rate (%) Lindernia pyxidaria
3 | COCC(C)n1oc(=O)c(Cc2ccccc2N(C(=O)C(C)C)S(=O)(=O)C(F)(F)F)c1C (centres unmarked) [Compound 1-335] | 90%
4 | CCC(C)n1oc(=O)c(Cc2ccccc2N(S(=O)(=O)CC)S(=O)(=O)C(F)(F)F)c1C (centres unmarked) [Compound 1-913] | 90%

same assay, conditions: Monochoria vaginalis, 120 g/10a active ingredient, assessed 14 days after treatment, dry weight vs untreated area

Row | Compound | Herbicidal rate (%) Monochoria vaginalis
5 | COCC(C)n1oc(=O)c(Cc2ccccc2N(C(=O)C(C)C)S(=O)(=O)C(F)(F)F)c1C (centres unmarked) [Compound 1-335] | 90%
6 | CCC(C)n1oc(=O)c(Cc2ccccc2N(S(=O)(=O)CC)S(=O)(=O)C(F)(F)F)c1C (centres unmarked) [Compound 1-913] | 90%

system: Scirpus juncoides; assay: as above; format: in vivo; details: 120 g/10a active ingredient, assessed 14 days after treatment, dry weight vs untreated area
Method in brief: as §1

Row | Compound | Herbicidal rate (%) Scirpus juncoides
7 | COCC(C)n1oc(=O)c(Cc2ccccc2N(C(=O)C(C)C)S(=O)(=O)C(F)(F)F)c1C (centres unmarked) [Compound 1-335] | 90%
8 | CCC(C)n1oc(=O)c(Cc2ccccc2N(S(=O)(=O)CC)S(=O)(=O)C(F)(F)F)c1C (centres unmarked) [Compound 1-913] | 90%

system: Echinochloa crus-galli; assay: Test Example 4: herbicidal effect test by treatment of leave and stem in dry field farming (seven days after seeding); format: in vivo; details: 120 g/10a active ingredient; emulsion sprayed seven days after seeding; evaluated 14 days after treatment
Method in brief: (§2)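 Twenty seeds per species were mixed into the top 1 cm of alluvial soil in 36 cm^2 pots; emulsions were sprayed seven days after seeding at 100 L per 10 ares (120 g active ingredient per 10 ares). Herbicidal rate (%) = {1 − treated/untreated mean dry weight} × 100, 14 days after treatment, duplicate.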

Row | Compound | herbicidal effect (herbicidal rate), Echinochloa crus-galli
9 | COCC(C)n1oc(=O)c(Cc2ccccc2N(C(=O)C(C)C)S(=O)(=O)C(F)(F)F)c1C (centres unmarked) [Compound 1-335] | 90%
10 | CCC(C)n1oc(=O)c(Cc2ccccc2N(S(=O)(=O)CC)S(=O)(=O)C(F)(F)F)c1C (centres unmarked) [Compound 1-913] | 90%

system: Amaranthus viridis; assay: as above; format: in vivo; details: 120 g/10a active ingredient; emulsion sprayed seven days after seeding; evaluated 14 days after treatment
Method in brief: as §2

Row | Compound | herbicidal effect (herbicidal rate), Amaranthus viridis
11 | COCC(C)n1oc(=O)c(Cc2ccccc2N(C(=O)C(C)C)S(=O)(=O)C(F)(F)F)c1C (centres unmarked) [Compound 1-335] | 40%
12 | CCC(C)n1oc(=O)c(Cc2ccccc2N(S(=O)(=O)CC)S(=O)(=O)C(F)(F)F)c1C (centres unmarked) [Compound 1-913] | 40%

system: southern crabgrass; assay: as above; format: in vivo; details: 120 g/10a active ingredient; emulsion sprayed seven days after seeding; evaluated 14 days after treatment
Method in brief: as §2

Row | Compound | herbicidal effect (herbicidal rate), southern crabgrass
13 | COCC(C)n1oc(=O)c(Cc2ccccc2N(C(=O)C(C)C)S(=O)(=O)C(F)(F)F)c1C (centres unmarked) [Compound 1-335] | 90%
14 | CCC(C)n1oc(=O)c(Cc2ccccc2N(S(=O)(=O)CC)S(=O)(=O)C(F)(F)F)c1C (centres unmarked) [Compound 1-913] | 90%

system: Chenopodium album; assay: as above; format: in vivo; details: 120 g/10a active ingredient; emulsion sprayed seven days after seeding; evaluated 14 days after treatment
Method in brief: as §2

Row | Compound | herbicidal effect (herbicidal rate), Chenopodium album
15 | COCC(C)n1oc(=O)c(Cc2ccccc2N(C(=O)C(C)C)S(=O)(=O)C(F)(F)F)c1C (centres unmarked) [Compound 1-335] | 40%
16 | CCC(C)n1oc(=O)c(Cc2ccccc2N(S(=O)(=O)CC)S(=O)(=O)C(F)(F)F)c1C (centres unmarked) [Compound 1-913] | 40%

system: Echinochloa crus-galli; assay: Test Example 3: herbicidal effect test by treatment of dry field farming soil (one day after seeding); format: in vivo; details: 120 g/10a active ingredient, evaluated 14 days after treatment
Method in brief: (§3)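 Compound emulsions are sprayed on the soil surface one day after sowing (120 g a.i. per 10 ares) before weeds emerge. Effect is expressed as percent dry-weight reduction versus untreated controls 14 days post-treatment.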

Row | Compound | herbicidal rate, Echinochloa crus-galli
17 | COCC(C)n1oc(=O)c(Cc2ccccc2N(C(=O)C(C)C)S(=O)(=O)C(F)(F)F)c1C (centres unmarked) [Compound 1-335] | 90%
18 | CCC(C)n1oc(=O)c(Cc2ccccc2N(S(=O)(=O)CC)S(=O)(=O)C(F)(F)F)c1C (centres unmarked) [Compound 1-913] | 90%

system: Amaranthus viridis; assay: as above; format: in vivo; details: 120 g/10a active ingredient, evaluated 14 days after treatment
Method in brief: as §3

Row | Compound | herbicidal rate, Amaranthus viridis
19 | COCC(C)n1oc(=O)c(Cc2ccccc2N(C(=O)C(C)C)S(=O)(=O)C(F)(F)F)c1C (centres unmarked) [Compound 1-335] | 90%
20 | CCC(C)n1oc(=O)c(Cc2ccccc2N(S(=O)(=O)CC)S(=O)(=O)C(F)(F)F)c1C (centres unmarked) [Compound 1-913] | 90%

system: southern crabgrass; assay: as above; format: in vivo; details: 120 g/10a active ingredient, evaluated 14 days after treatment
Method in brief: as §3

Row | Compound | herbicidal rate, southern crabgrass
21 | COCC(C)n1oc(=O)c(Cc2ccccc2N(C(=O)C(C)C)S(=O)(=O)C(F)(F)F)c1C (centres unmarked) [Compound 1-335] | 90%
22 | CCC(C)n1oc(=O)c(Cc2ccccc2N(S(=O)(=O)CC)S(=O)(=O)C(F)(F)F)c1C (centres unmarked) [Compound 1-913] | 90%

system: Chenopodium album; assay: as above; format: in vivo; details: 120 g/10a active ingredient, evaluated 14 days after treatment
Method in brief: as §3

Row | Compound | herbicidal rate, Chenopodium album
23 | COCC(C)n1oc(=O)c(Cc2ccccc2N(C(=O)C(C)C)S(=O)(=O)C(F)(F)F)c1C (centres unmarked) [Compound 1-335] | 90%
24 | CCC(C)n1oc(=O)c(Cc2ccccc2N(S(=O)(=O)CC)S(=O)(=O)C(F)(F)F)c1C (centres unmarked) [Compound 1-913] | 90%

system: Echinochloa crus-galli; assay: Test Example 1: herbicidal effect test by treatment of rice paddy soil (immediately after seeding); format: in vivo; details: 120 g/10a active ingredient, dry weight vs untreated area, 14 days after treatment
Method in brief: (§4)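 Flooded paddy pot test in a glass greenhouse: emulsion diluted in water, dropped at 120 g a.i. per 10 ares just after sowing, water depth kept about 3 cm. Dry-weight reduction relative to untreated plants is scored at 14 days.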

Row | Compound | Herbicidal rate (%) Echinochloa crus-galli
25 | COCC(C)n1oc(=O)c(Cc2ccccc2N(C(=O)C(C)C)S(=O)(=O)C(F)(F)F)c1C (centres unmarked) [Compound 1-335] | 90%
26 | CCC(C)n1oc(=O)c(Cc2ccccc2N(S(=O)(=O)CC)S(=O)(=O)C(F)(F)F)c1C (centres unmarked) [Compound 1-913] | 90%

system: broad leaf weeds (Lindernia pyxidaria and Monochoria vaginalis); assay: as above; format: in vivo; details: Lindernia pyxidaria, 120 g/10a active ingredient, dry weight vs untreated area, 14 days after treatment
Method in brief: as §4

Row | Compound | Herbicidal rate (%) Lindernia pyxidaria
27 | COCC(C)n1oc(=O)c(Cc2ccccc2N(C(=O)C(C)C)S(=O)(=O)C(F)(F)F)c1C (centres unmarked) [Compound 1-335] | 90%
28 | CCC(C)n1oc(=O)c(Cc2ccccc2N(S(=O)(=O)CC)S(=O)(=O)C(F)(F)F)c1C (centres unmarked) [Compound 1-913] | 90%

same assay, conditions: Monochoria vaginalis, 120 g/10a active ingredient, dry weight vs untreated area, 14 days after treatment

Row | Compound | Herbicidal rate (%) Monochoria vaginalis
29 | COCC(C)n1oc(=O)c(Cc2ccccc2N(C(=O)C(C)C)S(=O)(=O)C(F)(F)F)c1C (centres unmarked) [Compound 1-335] | 90%
30 | CCC(C)n1oc(=O)c(Cc2ccccc2N(S(=O)(=O)CC)S(=O)(=O)C(F)(F)F)c1C (centres unmarked) [Compound 1-913] | 90%

system: Scirpus juncoides; assay: as above; format: in vivo; details: 120 g/10a active ingredient, dry weight vs untreated area, 14 days after treatment
Method in brief: as §4

Row | Compound | Herbicidal rate (%) Scirpus juncoides
31 | COCC(C)n1oc(=O)c(Cc2ccccc2N(C(=O)C(C)C)S(=O)(=O)C(F)(F)F)c1C (centres unmarked) [Compound 1-335] | 90%
32 | CCC(C)n1oc(=O)c(Cc2ccccc2N(S(=O)(=O)CC)S(=O)(=O)C(F)(F)F)c1C (centres unmarked) [Compound 1-913] | 90%
